Data: paper PMC3348126, “Pharmacogenetics Meets Metabolomics: Discovery of Tryptophan as a New Endogenous OCT2 Substrate Related to Metformin Disposition” (PLoS ONE, 2012)

Tests used:
Type in all cases: cell-based
[1] = biological target: T1, Organic cation transporter 2 (OCT2) (Homo sapiens, UniProt O15244); assay: [3H]MPP+ uptake ([…]) in OCT2-expressing oocytes, water-injected background subtracted
T1 construct: gene SLC22A2

[2] = biological target: T2, Organic cation transporter 2 (OCT2) (Homo sapiens, UniProt O15244); assay: inhibition of [3H]MPP+ uptake in OCT2-expressing oocytes
T2 construct: gene SLC22A2; OCT2 expressed in oocytes
T2 sequence (O15244 1-555): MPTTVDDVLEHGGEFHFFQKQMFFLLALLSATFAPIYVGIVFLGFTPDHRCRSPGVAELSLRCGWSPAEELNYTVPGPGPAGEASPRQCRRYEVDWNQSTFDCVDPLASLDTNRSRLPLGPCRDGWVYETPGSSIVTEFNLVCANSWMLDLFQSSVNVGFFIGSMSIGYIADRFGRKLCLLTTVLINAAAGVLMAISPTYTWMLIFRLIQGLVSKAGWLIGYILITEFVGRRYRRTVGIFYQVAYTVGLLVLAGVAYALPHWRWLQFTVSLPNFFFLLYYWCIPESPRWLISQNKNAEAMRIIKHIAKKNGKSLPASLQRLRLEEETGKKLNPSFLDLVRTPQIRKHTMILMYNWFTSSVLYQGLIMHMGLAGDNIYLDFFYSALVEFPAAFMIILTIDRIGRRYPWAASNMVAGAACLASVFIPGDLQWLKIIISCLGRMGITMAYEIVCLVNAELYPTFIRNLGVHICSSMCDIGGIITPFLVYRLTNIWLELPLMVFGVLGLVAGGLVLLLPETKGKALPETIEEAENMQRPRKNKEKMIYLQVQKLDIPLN

[3] = biological target: T3, Organic cation transporter 2 (OCT2) 808G>T variant (Homo sapiens, UniProt O15244); assay: [3H]tryptophan uptake ([…]) in oocytes expressing the variant
T3 construct: gene SLC22A2; OCT2 808G>T variant expressed in oocytes
T3 sequence (O15244 1-555): T2 sequence (O15244 1-555)

[4] = biological target: T1, Organic cation transporter 2 (OCT2); assay: inhibition of [3H]MPP+ uptake and direct [3H]tryptophan uptake in OCT2-expressing oocytes
[5] = biological target: T4, OCT1 (Homo sapiens, UniProt O15245); assay: inhibition of OCT1-mediated [3H]MPP+ uptake and direct tryptophan uptake in oocytes; settings: read-out: % inhibition at 1 mM
T4 construct: gene SLC22A1; OCT1 expressed in oocytes (pcDNA3.1-OCT1)
T4 sequence (O15245 1-554): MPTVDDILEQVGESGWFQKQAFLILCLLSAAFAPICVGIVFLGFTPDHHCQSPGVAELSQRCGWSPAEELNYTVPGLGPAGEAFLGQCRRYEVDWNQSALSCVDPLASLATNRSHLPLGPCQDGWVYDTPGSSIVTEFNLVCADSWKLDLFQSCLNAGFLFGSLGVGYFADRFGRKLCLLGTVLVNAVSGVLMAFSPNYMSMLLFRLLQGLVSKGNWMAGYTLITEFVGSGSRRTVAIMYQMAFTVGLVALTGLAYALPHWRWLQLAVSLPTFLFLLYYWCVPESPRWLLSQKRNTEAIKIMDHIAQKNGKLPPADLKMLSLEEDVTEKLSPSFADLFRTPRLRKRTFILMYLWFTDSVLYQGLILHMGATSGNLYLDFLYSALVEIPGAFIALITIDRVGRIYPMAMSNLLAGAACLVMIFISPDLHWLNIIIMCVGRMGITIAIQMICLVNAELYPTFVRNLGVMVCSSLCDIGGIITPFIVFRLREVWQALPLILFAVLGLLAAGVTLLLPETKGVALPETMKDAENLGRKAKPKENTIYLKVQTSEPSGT

Q: `C[n+]1ccc(-c2ccccc2)cc1` [MPP+] was tested. Which “[3H]MPP+ uptake (18.5 nM) in OCT2-expressing oocytes, water-injected background” value [1] did it give?
A: 2.9 fmol/min/oocyte

Q: For `O=c1ccn([C@@H]2O[C@H](CO)[C@@H](O)[C@H]2O)c(=O)[nH]1` [uridine], which IC50 [2] is on record?
A: 51.5 mM

Q: Which results are given for `N[C@@H](Cc1c[nH]c2ccccc12)C(=O)O` [L-tryptophan]?
A: [3H]tryptophan uptake (100 nM) in oocytes expressing the variant [3]: 0.14 fmol/min/oocyte; IC50 [4]: 6.11 mM; inhibition at 1000 µM [5]: 50%
